Columns and labels:
[1] = set-up: method as in PMID 34355087; settings: cited from earlier work
[2] = Stability of ARV-110 QC samples in rat plasma under storage conditions; format: in vitro ADME
Experimental: (§1) The sample stability in rat and mouse plasma was evaluated at low and high QC concentrations. The short-term stability was evaluated at room temperature for 1 h, whereas the long-term stability was determined by assaying samples stored at −20 °C for 4 weeks. […] The freeze–thaw stability was tested by subjecting samples to three freeze–thaw cycles.

[3] = Stability of ARV-110 QC samples in mouse plasma under storage conditions; format: in vitro ADME
Experimental: as §1

[4] = In vitro plasma stability, rat; format: in vitro ADME; settings: 37 °C, incubation 4 h, read-out: T1/2 in plasma
Experimental: (§2) The stabilities of ARV-110 in the hepatic microsomal fraction and plasma were investigated for three species (human, rat, and mouse). For the microsomal stability study, a reaction mixture containing hepatic microsomes (protein concentration, 0.5 mg/mL) and 1 mM NADPH in phosphate buffer (pH 7.4) was pre-incubated in a thermomixer (5 min, 37 °C, 200 rpm). To initiate the metabolic reaction, 5 μL of ARV-110 in methanol (100 μM) was added to the pre-incubated mixture to obtain a final ARV-110 concentration of 1 μM. The metabolic reactions of buspirone and verapamil were conducted simultaneously as positive controls. For plasma stability measurements, 5 μL of ARV-110 in methanol (100 μM) was added to pre-warmed blank plasma to obtain a final ARV-110 concentration of 1 μM. Procaine was used to control plasma stability. The temperature was maintained and agitation was continued throughout the reaction, and sampling was conducted at predetermined time points (0 (beginning of the reaction), 15; 30; 60; 120; […] min). For the microsomal and plasma stability measurements, the reaction was conducted for 120 and 240 min, respectively. […] The elimination rate constant (ke) was determined as the slope of the linear regression between the log of the percentage of analyte remaining and the incubation time. […]

[5] = In vitro plasma stability, mouse; format: in vitro ADME; settings: 37 °C, incubation 4 h, read-out: T1/2 in plasma
Experimental: as §2

[6] = In vitro plasma stability, human; format: in vitro ADME; settings: 37 °C, incubation 4 h, read-out: T1/2 in plasma
Experimental: as §2

[7] = Hepatic microsomal metabolic stability, rat; format: in vitro ADME; settings: 1 mM NADPH, 37 °C
Experimental: as §2

[8] = Hepatic microsomal metabolic stability, mouse; format: in vitro ADME; settings: 1 mM NADPH, 37 °C
Experimental: as §2

[9] = Hepatic microsomal metabolic stability, human; format: in vitro ADME; settings: 1 mM NADPH, 37 °C
Experimental: as §2

[10] = Pharmacokinetic study in rats (IV and PO); format: in vivo, Sprague Dawley (SD) rats; settings: rat; for bioavailability: oral 5 mg/kg vs IV 2 mg/kg
Experimental: (§3) The validated LC-MS/MS method was applied to determine ARV-110 in pharmacokinetic studies in rats and mice. Animal studies were approved in advance by the Institutional Animal Care and Use Committee of Chungnam National University (202103A-CNU-053; Daejeon, Republic of Korea). Male Sprague Dawley (SD) rats (7 weeks old, 210–251 g) and male ICR mice (6 weeks old, 25–32 g) were purchased from Orient Bio Inc. (Seongnam, Republic of Korea). Their habitat was maintained under a 12 h light–dark cycle at a room temperature of 20–25 °C and a relative humidity of 40–60%. The animals had free access to food and water. Food fasting was started 14 or 4 h prior to drug administration to rats and mice, respectively. After drug administration, the animals were not given food or water for another 4 h.
The drug solution for the pharmacokinetic study in rats was prepared by dissolving ARV-110 in a dimethyl sulfoxide (DMSO)–PEG400–Cremophor EL–saline (5:40:5:50, v/v/v/v). The drug solution was administered to the rats via a single IV bolus into the tail vein at a dose of 2 mg/kg or PO using a gavage needle at a dose of 5 mg/kg. Blood samples (100 μL) were collected from the jugular vein using heparinized syringes at 0.083 (IV only), 0.25, 0.5, 1, 2, 4, 6, 8, 24, and 48 h after ARV-110 administration. Plasma was collected from the blood by centrifugation, and a 20 μL aliquot of plasma was stored at −20 °C until analysis.
(§4) For plasma sample preparation, 20 μL of rat or mouse plasma was added to 20 μL of IS solution (10 μg/mL) and 110 μL of acetonitrile. After vigorous mixing for 10 min, the mixture was centrifuged at 13,500 rpm for 10 min. An aliquot of the supernatant (100 μL) was collected for analysis. Cmax and Tmax were determined directly from the plasma concentration–time profile of each animal. To determine other pharmacokinetic parameters, the experimental data were analyzed using Phoenix® 8.2 software (Certara L.P., Princeton, NJ, USA), as described previously. All data are presented as mean ± SD.

[11] = Pharmacokinetic study in mice (IV and PO); format: in vivo, ICR mice; settings: mouse; for bioavailability: oral 5 mg/kg vs IV 2 mg/kg, after dose normalization
Experimental: as §3
The drug solution for the pharmacokinetic study in mice was prepared by dissolving ARV-110 in DMSO–PEG400–Cremophor EL–saline (5:30:2.5:62.5, v/v/v/v). The drug solution was administered via an IV bolus into the tail vein at a dose of 2 mg/kg or PO at a dose of 5 mg/kg. Blood samples (50 μL) were alternatively collected from the right retro-orbital plexus at 0.05 (IV only), 0.12, 0.5, 1, 2, 4, 8, 24, and 48 h after ARV-110 administration. Plasma was obtained by centrifuging the blood at 17,600× g for 5 min, and a 20 μL aliquot of plasma was stored at −20 °C until analysis.
as §4

[12] = tested on: AR; set-up: method as in PMID 31885879, PMID 30271980; settings: various prostate cancer cell lines; cited from earlier work
[13] = tested on: resistance models; set-up: method as in PMID 31885879, PMID 30271980; settings: cited from earlier work
[14] = set-up: method as in doi:10.1200/JCO.2020.38.15_suppl.3500; settings: preliminary data from a phase I clinical trial; cited from earlier work
[15] = 15 min at room temperature (25 °C), nominal 5 ng/mL
[16] = 15 min at room temperature (25 °C), nominal 2500 ng/mL
[17] = 1 h at room temperature (25 °C), nominal 5 ng/mL
[18] = 1 h at room temperature (25 °C), nominal 2500 ng/mL
[19] = 4 h on ice cold, nominal 5 ng/mL
[20] = 4 h on ice cold, nominal 2500 ng/mL
[21] = Freeze–thaw (3 cycles), nominal 5 ng/mL
[22] = Freeze–thaw (3 cycles), nominal 2500 ng/mL
[23] = Long term (4 weeks at −20 °C), nominal 5 ng/mL
[24] = Long term (4 weeks at −20 °C), nominal 2500 ng/mL
[25] = Processed sample (autosampler, 10 °C, 24 h), nominal 5 ng/mL
[26] = Processed sample (autosampler, 10 °C, 24 h), nominal 2500 ng/mL
[27] = male, Sprague Dawley, in vivo, intravenous, 2 mg/kg
[28] = male, Sprague Dawley, in vivo, oral, 5 mg/kg
[29] = male, ICR, in vivo, intravenous, 2 mg/kg
[30] = male, ICR, in vivo, oral, 5 mg/kg

Nc1cccc2c1C(=O)N(C1CCC(=O)NC1=O)C2=O (stereo not drawn) [pomalidomide]
logP [1]: 0.01
pKa [1]: 1.89

N#Cc1ccc(O[C@H]2CC[C@H](NC(=O)c3ccc(N4CCC(CN5CCN(c6cc7c(cc6F)C(=O)N(C6CCC(=O)NC6=O)C7=O)CC5)CC4)nn3)CC2)cc1Cl (stereo partly drawn) [ARV-110, bavdegalutamide]
Stability in Rat Plasma (%) [2, 15]: 100.6 ± 7.8%
Stability in Rat Plasma (%) [2, 16]: 96.99 ± 2.27%
Stability in Rat Plasma (%) [2, 17]: 68.73 ± 7.74%
Stability in Rat Plasma (%) [2, 18]: 68.82 ± 1.08%
Stability in Rat Plasma (%) [2, 19]: 92.20 ± 1.38%
Stability in Rat Plasma (%) [2, 20]: 92.21 ± 2.24%
Stability in Rat Plasma (%) [2, 21]: 103.2 ± 3.9%
Stability in Rat Plasma (%) [2, 22]: 101.8 ± 3.4%
Stability in Rat Plasma (%) [2, 23]: 100.6 ± 5.6%
Stability in Rat Plasma (%) [2, 24]: 100.5 ± 5.0%
Stability in Rat Plasma (%) [2, 25]: 99.60 ± 2.91%
Stability in Rat Plasma (%) [2, 26]: 102.6 ± 4.1%
ARV-110 remained in QC samples ([2]; rat plasma, short-term storage, 1 h at 25 °C): approximately 69%
Stability in Mouse Plasma (%) [3, 15]: 99.43 ± 2.93%
Stability in Mouse Plasma (%) [3, 16]: 95.74 ± 5.74%
Stability in Mouse Plasma (%) [3, 17]: 83.70 ± 14.24%
Stability in Mouse Plasma (%) [3, 18]: 78.91 ± 4.93%
Stability in Mouse Plasma (%) [3, 19]: 93.01 ± 5.30%
Stability in Mouse Plasma (%) [3, 20]: 94.09 ± 5.23%
Stability in Mouse Plasma (%) [3, 21]: 104.0 ± 6.1%
Stability in Mouse Plasma (%) [3, 22]: 103.2 ± 4.1%
Stability in Mouse Plasma (%) [3, 23]: 97.97 ± 10.23%
Stability in Mouse Plasma (%) [3, 24]: 97.59 ± 3.78%
Stability in Mouse Plasma (%) [3, 25]: 98.77 ± 3.58%
Stability in Mouse Plasma (%) [3, 26]: 98.62 ± 3.54%
ARV-110 remained in QC samples ([3]; mouse plasma, short-term storage, 1 h at 25 °C): ~80%
half-life at 1 μM [4]: 0.733 h
half-life at 1 μM [5]: 1.55 h
half-life at 1 μM [6]: 0.4 h
half-life at 1 μM ([7]; pH 7.4, rat hepatic microsomes 0.5 mg/mL, read-out: elimination half-life (T1/2) in hepatic microsomes): 36.9 h
drug remaining after incubation for 2 h ([7]; rat hepatic microsomes 0.5 mg/mL, 1 μM): 96.60%
drug remaining after incubation for 2 h ([8]; mouse hepatic microsomes 0.5 mg/mL, 1 μM): 80.95%
half-life at 1 μM ([8]; pH 7.4, mouse hepatic microsomes 0.5 mg/mL, read-out: elimination half-life (T1/2) in hepatic microsomes): 6.92 h
drug remaining after incubation for 2 h ([9]; human hepatic microsomes 0.5 mg/mL, 1 μM): 92.07%
half-life at 1 μM ([9]; pH 7.4, human hepatic microsomes 0.5 mg/mL, read-out: elimination half-life (T1/2) in hepatic microsomes): 16.4 h
AUC(0-inf) [10, 27]: 4860 ± 381 ng·h/mL
AUC(0-t) [10, 27]: 4530 ± 288 ng·h/mL
Cmax [10, 27]: 2520 ± 292 ng/mL
MRT [10, 27]: 10.2 ± 0.48 h
Tmax [10, 27]: 0.083 h
clearance [10, 27]: 6.89 mL/min/kg
half-life [10, 27]: 13.6 ± 1.43 h
Vd ([10]; male, Sprague Dawley, in vivo, intravenous, 2 mg/kg, read-out: Vss): 5.78 ± 0.32 L/kg
AUC(0-inf) [10, 28]: 2890 ± 318 ng·h/mL
AUC(0-t) [10, 28]: 2420 ± 222 ng·h/mL
Cmax [10, 28]: 110 ± 9.2 ng/mL
MRT [10, 28]: 16.4 ± 1.16 h
Tmax [10, 28]: 5.5 ± 1.92 h
half-life [10, 28]: 17.7 ± 3.21 h
bioavailability ([10]; male, Sprague Dawley, in vivo, 5 mg/kg, read-out: Bioavailability): 23.8%
bioavailability [10]: 23.83 ± 2.62%
AUC(0-inf) [11, 29]: 11300 ng·h/mL
AUC(0-t) [11, 29]: 10800 ng·h/mL
Cmax [11, 29]: 1260 ± 99 ng/mL
MRT [11, 29]: 13.1 ± 0.9 h
Tmax [11, 29]: 0.05 h
clearance [11, 29]: 3.02 mL/min/kg
half-life [11, 29]: 11.4 ± 0.51 h
Vd ([11]; male, ICR, in vivo, intravenous, 2 mg/kg, read-out: Vss): 2.37 ± 0.402 L/kg
AUC(0-inf) [11, 30]: 10700 ng·h/mL
AUC(0-t) [11, 30]: 9870 ± 1000 ng·h/mL
Cmax [11, 30]: 612 ± 88.4 ng/mL
MRT [11, 30]: 12.9 ± 0.84 h
Tmax [11, 30]: 4.8 ± 1.79 h
half-life [11, 30]: 14.6 ± 2.48 h
bioavailability ([11]; male, ICR, in vivo, 5 mg/kg, read-out: Bioavailability): 37.9%
bioavailability [11]: 37.89 ± 4.16%
degradation of AR [12]: 95–98%
reduction of tumor growth [13]: 70–100%
safety and tolerability in patients [14]: satisfactory safety and tolerability
